Test results published in patent publication US5260050A, “Methods and compositions for magnetic resonance imaging comprising superparamagnetic ferromagnetically coupled chromium complexes” (priority 1990, dated 1993).

Experiments:
[1] = cited from earlier work
[2] = system: BRO-strain human malignant melanomas; experiment: MR imaging of human melanoma xenografts in nude mice; assay type: in vivo, human; Swiss nude mice; conditions: i.v.
Procedure: The strong paramagnetic metal ion, gadolinium (Gd^+3), was chelated stoichiometrically to DTPA-Dextran 70 polymer, whose preparation is described in Example 1, paragraph 2 (improved formulation). Swiss nude mice were inoculated with BRO-strain human malignant melanomas, and these were allowed to grow to a 1-1.5 cm diameter. Moderately T1-weighted MR imaging (TR=500 msec, TE=40 msec) was performed in a standard Diasonics™ medical imager and a 30-cm RF head coil, before and after intravenous injection of equivalent doses of Gd-DTPA-Dextran-70 (0.03 mmol Gd/kg) or Gd-DTPA (0.1 mmol/kg) contrast agent. […] It will also be recognized that much lower doses of the stronger superparamagnetics (including doses below about 0.01 mmol/kg, versus 0.1 mmol/kg for Gd-DTPA) can be used to obtain effective MRI contrast enhancement; and that much faster, more heavily T1-weighted pulse sequences can be implemented in the presence of superparamagnetic-polymer conjugates or paired-ion complexes.

[3] = in vivo; cited from earlier work
[4] = typically 15 MHz; cited from earlier work
[5] = system: tumor; conditions: in vivo; cited from earlier work
[6] = system: tumor cells; experiment: Histology of heparin carrier transport into tumor cells; conditions: histologically (not shown)
[7] = Permeability of tumor vascular walls; conditions: transport by a polymeric carrier
[8] = system: VX2 carcinoma cells; experiment: Histochemical platinum staining of perfused VX2 tumors; assay type: in vivo, rabbit; conditions: intraarterial perfusion
Procedure: At 5 to 15 minutes postinjection, the animals were sacrificed, their lungs removed and fixed with intratracheal buffered formalin, tissue sections cut at 8 microns thickness, and the sections stained using a newly devised method for platinum which comprises a microwave-augmented iron-type stain (60° C.×2 minute×3 cycles) using a 1:1 mixture of 2% ferriferocyanide reagent and 4% HCl. […] To those skilled in the art, additional evidence for selective lung localization, was obtained by injecting intravenously, analogous (subembolizing) heparin-coated nanoparticles containing encapsulated amphotericin B, into identical mice, homogenizing the lungs, and documenting an 8-fold increment in drug levels over native amphotericin B (deoxycholate formulation, Fungizone; Squibb) recovered at 1 to 3 hours postinjection.
Additional documentation for maintenance of the cisplatin-carrier paired-ion complex in vivo was obtained as follows. […] Animals were sacrificed at 15 minutes, and the tumors and organs were homogenized extracted and analyzed by atomic absorption for tissue platinum concentrations, as shown in Table 1.
Additionally, histochemical platinum stains were performed on the tumor tissues, as described in Example 7.
Microinhomogeneities of tissue heating represent a major problem in hyperthermia treatment of tumors. […]

CNC[C@H](O)[C@@H](O)[C@H](O)[C@H](O)CO.CNC[C@H](O)[C@@H](O)[C@H](O)[C@H](O)CO.O=C([O-])CN(CCN(CC(=O)[O-])CC(=O)O)CCN(CC(=O)[O-])CC(=O)O.[Gd+3] [Gd-DTPA, gadolinium-diethylenetriaminepentaacetate (Gd-DTPA) dimeglumine]
Blood clearance half-time ([1]; bloodstream): 20 min | Fading of tumor contrast enhancement ([1]; by 30 minutes postcontrast): almost complete fading (tumor clearance) | Acute hepatic uptake interval ([1]; in vivo): 5 to 45 min | Postinjection contrast interval / imaging window ([1]; in vivo): 10 to 45 min | Retained fraction ([1]; in vivo): less than 0.5% | Fraction sequestered in the kidneys ([1]; intravenous): > 90% | Fading of tumor enhancement ([2]; 0.1 mmol/kg, by one hour): completely faded | Postcontrast interval at which optimal tumor enhancement began ([2]; 0.03 mmol Gd/kg (Gd-DTPA-dextran) or 0.1 mmol/kg (Gd-DTPA), TR=500, TE=40 msec): 10 min | Biodistribution, share of total body water [3]: ca. 35 % of total body water | Relaxivity at higher clinical radio frequencies [4]: moderate decrease in relaxivity | Retention in tumor interstitium / tumor enhancement of comparator [5]: 10 to 45 min

heparin
Intracellular transport in tumor cells [6]: transported inside tumor cells

OCC(O)CO [glycerol]
Permeability of tumor vascular walls [7]: increases the permeability of the vascular walls in the tumorous region

N.N.[Cl][Pt][Cl] [cisplatin, cis-dichlorodiamine platinum]
Aggregated staining [8]: absent
